From publication PMC3237348, “Chemical Genomics Profiling of Environmental Chemical Modulation of Human Nuclear Receptors” (Environmental Health Perspectives, 2011) come the findings set out here.

The target of experiment [1] is T1, PPARγ (Homo sapiens, UniProt P37231).
T1 construct: gene PPARG; GeneBLAzer bla HEK 293T reporter line (Invitrogen)
T1 sequence (P37231 238-505 limits assumed): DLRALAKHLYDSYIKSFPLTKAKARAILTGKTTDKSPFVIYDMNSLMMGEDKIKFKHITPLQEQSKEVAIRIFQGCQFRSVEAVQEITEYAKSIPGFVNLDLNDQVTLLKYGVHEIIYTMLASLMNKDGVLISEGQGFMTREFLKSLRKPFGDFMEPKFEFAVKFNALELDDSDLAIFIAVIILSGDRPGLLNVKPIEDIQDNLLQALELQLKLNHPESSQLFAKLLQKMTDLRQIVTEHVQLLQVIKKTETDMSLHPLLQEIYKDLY
Nature of the experiment: GAL-LBD beta-lactamase reporter qHTS, HEK […], […] nm ratio. Format: cell-based. Background: In qHTS, concentration-response curves come from the screen itself.

The next experiment has as its target T2, LXRβ (Homo sapiens, UniProt P55055).
T2 construct: gene NR1H2; GeneBLAzer bla HEK 293T reporter line (Invitrogen)
T2 sequence (P55055 222-460 limits assumed): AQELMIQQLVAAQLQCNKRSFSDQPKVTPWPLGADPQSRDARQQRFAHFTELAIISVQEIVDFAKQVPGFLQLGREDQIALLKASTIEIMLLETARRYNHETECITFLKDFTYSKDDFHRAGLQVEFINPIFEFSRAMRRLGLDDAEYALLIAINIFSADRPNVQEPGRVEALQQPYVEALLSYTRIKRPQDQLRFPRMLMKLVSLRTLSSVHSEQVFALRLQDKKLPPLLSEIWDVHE
The experiment is described as above. The format is cell-based. The settings on record: agonist mode; […]-18 h at […] °C; unreliable.

The target in experiment [2] is T3, PPARδ (Homo sapiens, UniProt Q03181).
T3 construct: gene PPARD; GeneBLAzer bla HEK 293T reporter line (Invitrogen)
T3 sequence (Q03181 139-441 limits assumed): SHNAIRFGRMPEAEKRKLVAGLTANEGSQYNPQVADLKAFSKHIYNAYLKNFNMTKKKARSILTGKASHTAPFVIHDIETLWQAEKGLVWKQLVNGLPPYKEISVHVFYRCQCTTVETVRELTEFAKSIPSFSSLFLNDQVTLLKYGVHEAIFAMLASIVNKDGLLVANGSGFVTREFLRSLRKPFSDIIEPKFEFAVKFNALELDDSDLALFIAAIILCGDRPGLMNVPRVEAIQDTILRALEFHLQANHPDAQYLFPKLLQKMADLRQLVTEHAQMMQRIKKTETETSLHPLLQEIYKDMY
Nature of the experiment: cell-based. The arrangement: species or system HEK 293T; GeneBLAzer GAL4-LBD beta-lactamase reporter, antagonist mode with added agonist, 460/530 nm FRET ratio. The conditions noted are these: with L165041 0.5 uM; antagonist mode, known agonist added; read-out: Control Titration EC50/IC50 (µM), antagonist mode. The text has this:
(§1) β-Lactamase reporter gene assay and qHTS. […] All cell culture reagents were obtained from Invitrogen.

Another experiment deals with T4, GR (Homo sapiens, UniProt P04150).
T4 construct: gene NR3C1; GeneBLAzer bla HEK 293T reporter line (Invitrogen)
T4 sequence (P04150 521-777 limits assumed): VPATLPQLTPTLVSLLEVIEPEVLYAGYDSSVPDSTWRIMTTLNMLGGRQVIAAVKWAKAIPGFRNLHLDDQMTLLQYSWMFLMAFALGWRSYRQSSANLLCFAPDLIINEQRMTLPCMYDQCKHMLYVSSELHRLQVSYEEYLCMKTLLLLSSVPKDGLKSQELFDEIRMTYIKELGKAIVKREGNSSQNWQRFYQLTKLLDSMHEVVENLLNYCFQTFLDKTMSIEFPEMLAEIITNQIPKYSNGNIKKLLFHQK
Briefly: GAL-LBD beta-lactamase reporter qHTS, HEK […], […] nm ratio. The format is cell-based.

The target of experiment [3] is T3, PPARδ. The experiment is described as above. The format is cell-based.
The next experiment concerns the target T5, RXRα (Homo sapiens, UniProt P19793).
T5 construct: gene RXRA; GeneBLAzer bla HEK 293T reporter line (Invitrogen)
T5 sequence (P19793 225-462 limits assumed): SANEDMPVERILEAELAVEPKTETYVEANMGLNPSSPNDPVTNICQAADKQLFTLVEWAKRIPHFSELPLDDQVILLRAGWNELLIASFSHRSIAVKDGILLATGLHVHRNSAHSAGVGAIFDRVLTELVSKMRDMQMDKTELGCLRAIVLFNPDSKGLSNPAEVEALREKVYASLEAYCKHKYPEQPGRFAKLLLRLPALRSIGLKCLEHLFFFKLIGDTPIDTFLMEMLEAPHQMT
The description is as above. Format: cell-based.

A further experiment deals with T6, ERα (Homo sapiens, UniProt P03372).
T6 construct: gene ESR1; GeneBLAzer bla HEK 293T reporter line (Invitrogen)
T6 sequence (P03372 311-547 limits assumed): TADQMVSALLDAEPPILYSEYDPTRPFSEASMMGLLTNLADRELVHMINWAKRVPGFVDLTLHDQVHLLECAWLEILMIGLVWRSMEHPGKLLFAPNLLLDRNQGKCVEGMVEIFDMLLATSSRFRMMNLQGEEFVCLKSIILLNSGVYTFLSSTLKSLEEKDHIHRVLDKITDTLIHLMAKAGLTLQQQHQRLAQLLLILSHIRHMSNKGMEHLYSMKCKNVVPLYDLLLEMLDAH
Described as above. The format is cell-based.

The target in experiment [4] is T1, PPARγ. Briefly: cell-based. Also noted: species or system HEK 293T; GeneBLAzer GAL4-LBD beta-lactamase reporter, antagonist mode with added agonist, 460/530 nm FRET ratio. The settings on record: with rosiglitazone 0.05 uM; antagonist mode, known agonist added; read-out: Control Titration EC50/IC50 (µM), antagonist mode.
Description: as §1

In experiment [5] the target is T1, PPARγ. Briefly: GAL-LBD beta-lactamase reporter qHTS, HEK […], […] nm ratio. The format is cell-based. This is another data set of the same source.
Experiment [6] concerns the target T3, PPARδ. Nature of the experiment: cell-based. The arrangement: species or system HEK 293T; GeneBLAzer GAL4-LBD beta-lactamase reporter, agonist mode, 460/530 nm FRET ratio. The conditions noted are these: agonist mode; read-out: Control Titration EC50/IC50 (µM), agonist mode.
Description: as §1

With `CC(C)(c1ccc(OCC2CO2)cc1)c1ccc(OCC2CO2)cc1` (centres unmarked) [BADGE], the IC50 on PPARγ [1] (antagonist mode, nonsaturating agonist pre-added, […]-18 h at […] °C) was found to be 50100 nM. With `O=S(=O)(c1ccccc1)N(CC(F)(F)F)c1ccc(C(O)(C(F)(F)F)C(F)(F)F)cc1` [TO-901317], the EC50 on LXRβ worked out at 250 nM. With `CC(C)c1ccc2c(c1)c(SC(C)(C)C)c(CC(C)(C)C(=O)O)n2Cc1ccc(Cl)cc1` [MK886], the IC50 on PPARδ [2] is 54 µM. Consider `C[C@]12C=CC(=O)C=C1CC[C@H]1[C@@H]3C[C@@H](O)[C@](O)(C(=O)CO)[C@@]3(C)C[C@H](O)[C@@]12F` [Triamcinolone], for which, on GR, the EC50 stood at 110 nM.

As to `CCCCCCCCCCCCCCC(Br)C(=O)O` (centres unmarked) [2-Bromohexadecanoic acid], the EC50 on PPARδ [3] was 28200 nM. On to `CC1(C)CCC(C)(C)c2cc(C(=O)Nc3ccc(C(=O)O)cc3)ccc21` [AM-580], for which, at RXRα, the EC50 is 620 nM. Consider `CCCc1c(-c2ccc(O)cc2)nn(-c2ccc(O)cc2)c1-c1ccc(O)cc1` [1,3,5-tris(4-Hydroxyphenyl)-4-propyl-1H-pyrazole], for which the EC50 on ERα turned out to be 100 nM.

`C/C(=C\c1ccc(C(=O)O)cc1)c1ccc2c(c1)C(C)(C)CCC2(C)C` [TTNPB, (E)-4-[2-(5,6,7,8-tetrahydro-5,5,8,8-tetramethyl-2-naphthylenyl)-1-propenyl] benzoic acid]: the EC50 on RXRα came out at 710 nM. Regarding `O=C(Nc1ccccc1)c1cc([N+](=O)[O-])ccc1Cl` [GW9662], the IC50 on PPARγ [1] is 12600 nM; at PPARγ [4], 0.011 µM. Regarding `CC(C)C[C@H](NC(=O)OCC1c2ccccc2-c2ccccc21)C(=O)O` [Fmoc-l-leucine], the EC50 at PPARγ [5] came to 11200 nM. Take `CCCc1c(OCCCOc2ccc(OCC(=O)O)cc2)ccc(C(C)=O)c1O` [l-165,041]: the EC50 on PPARδ [6] turned out to be 0.036 ± 0.006 µM; at PPARδ [3] it was 90 nM. `CC(C)CCC[C@@H](C)[C@H]1CC[C@H]2[C@@H]3CC=C4C[C@@H](O)CC[C@]4(C)[C@H]3CC[C@]12C` [Cholesterol]: at LXRβ, the EC50 was 39810 nM.
